Results from ChEMBL document CHEMBL5058646 (2022).

Tests used:
[1] = biological target: Lymphokine-activated killer T-cell-originated protein kinase (Homo sapiens) (UniProt Q96KB5); experiment: TOPK SGC Tm panel (DSF); settings: Compound concentration 20.0 uM
[2] = biological target: Beta-1 adrenergic receptor (Homo sapiens) (UniProt P08588); settings: Compound concentration 10.0 uM
[3] = biological target: Serine/threonine-protein kinase pim-3 (Homo sapiens) (UniProt Q86V86); experiment: PIM3 SGC Tm panel (DSF); settings: Compound concentration 20.0 uM
[4] = biological target: STE20-like serine/threonine-protein kinase (Homo sapiens) (UniProt Q9H2G2); experiment: SLK SGC Tm panel (DSF); settings: Compound concentration 20.0 uM
Sequence of STE20-like serine/threonine-protein kinase (Homo sapiens) (Q9H2G2 whole entry, looked up, the tested form may be a part): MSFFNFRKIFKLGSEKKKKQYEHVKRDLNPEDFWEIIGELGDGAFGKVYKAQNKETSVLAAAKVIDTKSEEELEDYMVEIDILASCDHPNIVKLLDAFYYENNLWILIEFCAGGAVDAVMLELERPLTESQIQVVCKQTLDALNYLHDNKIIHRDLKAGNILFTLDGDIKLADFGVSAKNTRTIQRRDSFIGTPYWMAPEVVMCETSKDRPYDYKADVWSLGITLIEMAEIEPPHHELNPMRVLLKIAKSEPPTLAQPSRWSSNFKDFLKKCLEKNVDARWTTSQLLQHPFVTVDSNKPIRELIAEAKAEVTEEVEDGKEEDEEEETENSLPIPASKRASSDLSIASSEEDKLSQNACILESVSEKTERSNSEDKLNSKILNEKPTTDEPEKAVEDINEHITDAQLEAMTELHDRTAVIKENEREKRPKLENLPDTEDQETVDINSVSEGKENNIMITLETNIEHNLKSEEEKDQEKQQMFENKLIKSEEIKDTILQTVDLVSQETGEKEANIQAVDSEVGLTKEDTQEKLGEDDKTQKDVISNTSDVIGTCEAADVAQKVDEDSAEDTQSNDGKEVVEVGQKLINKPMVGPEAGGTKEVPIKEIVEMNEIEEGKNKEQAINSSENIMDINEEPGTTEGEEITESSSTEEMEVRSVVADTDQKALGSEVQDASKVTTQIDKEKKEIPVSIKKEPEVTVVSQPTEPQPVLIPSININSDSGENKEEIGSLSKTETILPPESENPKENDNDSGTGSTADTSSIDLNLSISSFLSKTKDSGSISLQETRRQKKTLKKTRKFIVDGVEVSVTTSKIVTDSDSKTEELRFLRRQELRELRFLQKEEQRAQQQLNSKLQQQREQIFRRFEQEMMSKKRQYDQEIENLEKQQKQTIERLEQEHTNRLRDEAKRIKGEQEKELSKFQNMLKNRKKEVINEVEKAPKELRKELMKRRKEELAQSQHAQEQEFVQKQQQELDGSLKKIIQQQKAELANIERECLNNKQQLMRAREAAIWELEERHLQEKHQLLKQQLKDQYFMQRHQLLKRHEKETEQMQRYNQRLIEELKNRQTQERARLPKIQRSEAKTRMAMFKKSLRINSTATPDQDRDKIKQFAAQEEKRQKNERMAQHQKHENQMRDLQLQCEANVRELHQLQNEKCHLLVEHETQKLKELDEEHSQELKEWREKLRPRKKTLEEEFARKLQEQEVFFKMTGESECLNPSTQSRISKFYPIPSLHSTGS

[5] = biological target: Zinc finger and BTB domain-containing protein 7A (Homo sapiens) (UniProt O95365); settings: SUD4, Compound concentration 1.0 uM
Sequence of Zinc finger and BTB domain-containing protein 7A (Homo sapiens) (O95365 whole entry, the tested form may be a part): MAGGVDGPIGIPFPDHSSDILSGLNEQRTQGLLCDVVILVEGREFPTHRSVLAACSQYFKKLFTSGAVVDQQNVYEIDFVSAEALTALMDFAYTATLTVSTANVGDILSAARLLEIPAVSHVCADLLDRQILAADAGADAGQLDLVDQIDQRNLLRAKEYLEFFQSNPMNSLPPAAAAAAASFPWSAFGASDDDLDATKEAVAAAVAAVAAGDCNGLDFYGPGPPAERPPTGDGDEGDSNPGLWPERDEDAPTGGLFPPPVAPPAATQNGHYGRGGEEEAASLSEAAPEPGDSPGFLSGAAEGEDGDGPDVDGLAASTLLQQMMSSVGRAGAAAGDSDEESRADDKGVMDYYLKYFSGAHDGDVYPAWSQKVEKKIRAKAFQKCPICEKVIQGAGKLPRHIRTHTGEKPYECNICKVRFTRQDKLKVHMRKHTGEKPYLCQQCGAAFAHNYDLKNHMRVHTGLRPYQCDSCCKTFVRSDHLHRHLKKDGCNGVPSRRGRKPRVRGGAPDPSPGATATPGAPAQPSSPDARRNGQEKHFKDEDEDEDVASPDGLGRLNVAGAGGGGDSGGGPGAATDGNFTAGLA

[6] = biological target: Dual specificity tyrosine-phosphorylation-regulated kinase 2 (Homo sapiens) (UniProt Q92630); experiment: DYRK2 SGC Tm panel (DSF); settings: Compound concentration 20.0 uM
Sequence of Dual specificity tyrosine-phosphorylation-regulated kinase 2 (Homo sapiens) (Q92630 whole entry): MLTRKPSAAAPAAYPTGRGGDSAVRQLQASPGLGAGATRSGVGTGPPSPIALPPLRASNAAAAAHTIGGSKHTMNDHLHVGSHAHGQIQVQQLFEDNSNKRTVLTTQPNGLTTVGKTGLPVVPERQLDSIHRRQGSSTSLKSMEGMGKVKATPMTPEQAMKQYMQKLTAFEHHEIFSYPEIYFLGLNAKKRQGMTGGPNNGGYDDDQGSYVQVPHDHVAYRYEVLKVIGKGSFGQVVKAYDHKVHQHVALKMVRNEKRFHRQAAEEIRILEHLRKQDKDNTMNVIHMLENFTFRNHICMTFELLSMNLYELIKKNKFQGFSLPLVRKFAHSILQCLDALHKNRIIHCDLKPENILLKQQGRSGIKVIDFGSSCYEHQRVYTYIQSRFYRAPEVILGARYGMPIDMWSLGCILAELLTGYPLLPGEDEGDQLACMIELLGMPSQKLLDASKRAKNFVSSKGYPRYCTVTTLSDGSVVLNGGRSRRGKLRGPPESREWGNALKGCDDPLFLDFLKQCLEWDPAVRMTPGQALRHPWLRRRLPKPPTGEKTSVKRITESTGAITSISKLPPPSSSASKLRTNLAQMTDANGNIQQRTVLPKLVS

[7] = biological target: 5-hydroxytryptamine receptor 1D (Homo sapiens, UniProt P28221); settings: Compound concentration 10.0 uM
[8] = biological target: Zinc finger and BTB domain-containing protein 14 (Homo sapiens) (UniProt O43829); settings: SUD4, Compound concentration 1.0 uM
Sequence of Zinc finger and BTB domain-containing protein 14 (Homo sapiens) (O43829 whole entry, the tested form may be a part): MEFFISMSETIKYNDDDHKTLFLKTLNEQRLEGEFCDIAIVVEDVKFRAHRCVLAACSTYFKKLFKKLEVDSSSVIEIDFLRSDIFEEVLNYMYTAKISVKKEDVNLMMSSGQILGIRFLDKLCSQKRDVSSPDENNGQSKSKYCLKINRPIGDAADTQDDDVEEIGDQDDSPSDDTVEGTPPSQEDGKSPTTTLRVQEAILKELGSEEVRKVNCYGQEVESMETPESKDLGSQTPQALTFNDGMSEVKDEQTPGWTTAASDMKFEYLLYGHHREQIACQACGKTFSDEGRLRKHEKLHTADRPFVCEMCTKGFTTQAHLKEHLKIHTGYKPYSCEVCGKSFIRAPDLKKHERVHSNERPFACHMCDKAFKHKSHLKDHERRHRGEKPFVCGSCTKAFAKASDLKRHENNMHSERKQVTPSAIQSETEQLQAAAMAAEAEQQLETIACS

[9] = biological target: Ephrin type-B receptor 1 (Homo sapiens) (UniProt P54762); experiment: EPHB1 SGC Tm panel (DSF); settings: Compound concentration 20.0 uM
Sequence of Ephrin type-B receptor 1 (Homo sapiens) (P54762 whole entry): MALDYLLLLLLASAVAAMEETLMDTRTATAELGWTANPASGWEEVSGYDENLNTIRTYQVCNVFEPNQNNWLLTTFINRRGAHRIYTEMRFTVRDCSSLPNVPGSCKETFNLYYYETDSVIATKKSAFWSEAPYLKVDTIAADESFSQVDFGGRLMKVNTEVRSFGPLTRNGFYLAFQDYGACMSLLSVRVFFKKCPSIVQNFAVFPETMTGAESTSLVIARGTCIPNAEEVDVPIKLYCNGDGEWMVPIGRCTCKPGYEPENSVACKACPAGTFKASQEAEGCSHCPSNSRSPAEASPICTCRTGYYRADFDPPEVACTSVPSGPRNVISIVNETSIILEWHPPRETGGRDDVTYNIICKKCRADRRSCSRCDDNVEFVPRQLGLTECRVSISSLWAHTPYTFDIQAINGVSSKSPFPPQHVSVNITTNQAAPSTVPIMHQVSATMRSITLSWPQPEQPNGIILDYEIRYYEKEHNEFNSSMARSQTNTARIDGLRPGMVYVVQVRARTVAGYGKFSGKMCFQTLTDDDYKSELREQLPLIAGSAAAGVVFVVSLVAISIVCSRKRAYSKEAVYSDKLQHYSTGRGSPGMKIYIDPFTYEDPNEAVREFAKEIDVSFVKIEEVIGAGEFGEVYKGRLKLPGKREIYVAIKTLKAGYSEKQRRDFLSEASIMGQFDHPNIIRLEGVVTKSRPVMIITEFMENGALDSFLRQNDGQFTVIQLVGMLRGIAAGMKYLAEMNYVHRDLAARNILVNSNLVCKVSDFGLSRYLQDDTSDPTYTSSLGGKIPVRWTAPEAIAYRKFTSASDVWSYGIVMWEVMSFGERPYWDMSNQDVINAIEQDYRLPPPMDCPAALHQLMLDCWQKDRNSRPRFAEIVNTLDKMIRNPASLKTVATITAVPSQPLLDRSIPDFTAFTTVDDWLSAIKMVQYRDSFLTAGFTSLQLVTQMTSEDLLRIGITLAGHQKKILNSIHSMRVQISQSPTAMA

[10] = biological target: B-cell lymphoma 6 protein (Homo sapiens, UniProt P41182); settings: SUD4, Compound concentration 1.0 uM
[11] = biological target: T1, Zinc finger and BTB domain-containing protein 40 (Homo sapiens) (UniProt Q9NUA8); settings: SUD4, Compound concentration 1.0 uM
T1 sequence (whole entry): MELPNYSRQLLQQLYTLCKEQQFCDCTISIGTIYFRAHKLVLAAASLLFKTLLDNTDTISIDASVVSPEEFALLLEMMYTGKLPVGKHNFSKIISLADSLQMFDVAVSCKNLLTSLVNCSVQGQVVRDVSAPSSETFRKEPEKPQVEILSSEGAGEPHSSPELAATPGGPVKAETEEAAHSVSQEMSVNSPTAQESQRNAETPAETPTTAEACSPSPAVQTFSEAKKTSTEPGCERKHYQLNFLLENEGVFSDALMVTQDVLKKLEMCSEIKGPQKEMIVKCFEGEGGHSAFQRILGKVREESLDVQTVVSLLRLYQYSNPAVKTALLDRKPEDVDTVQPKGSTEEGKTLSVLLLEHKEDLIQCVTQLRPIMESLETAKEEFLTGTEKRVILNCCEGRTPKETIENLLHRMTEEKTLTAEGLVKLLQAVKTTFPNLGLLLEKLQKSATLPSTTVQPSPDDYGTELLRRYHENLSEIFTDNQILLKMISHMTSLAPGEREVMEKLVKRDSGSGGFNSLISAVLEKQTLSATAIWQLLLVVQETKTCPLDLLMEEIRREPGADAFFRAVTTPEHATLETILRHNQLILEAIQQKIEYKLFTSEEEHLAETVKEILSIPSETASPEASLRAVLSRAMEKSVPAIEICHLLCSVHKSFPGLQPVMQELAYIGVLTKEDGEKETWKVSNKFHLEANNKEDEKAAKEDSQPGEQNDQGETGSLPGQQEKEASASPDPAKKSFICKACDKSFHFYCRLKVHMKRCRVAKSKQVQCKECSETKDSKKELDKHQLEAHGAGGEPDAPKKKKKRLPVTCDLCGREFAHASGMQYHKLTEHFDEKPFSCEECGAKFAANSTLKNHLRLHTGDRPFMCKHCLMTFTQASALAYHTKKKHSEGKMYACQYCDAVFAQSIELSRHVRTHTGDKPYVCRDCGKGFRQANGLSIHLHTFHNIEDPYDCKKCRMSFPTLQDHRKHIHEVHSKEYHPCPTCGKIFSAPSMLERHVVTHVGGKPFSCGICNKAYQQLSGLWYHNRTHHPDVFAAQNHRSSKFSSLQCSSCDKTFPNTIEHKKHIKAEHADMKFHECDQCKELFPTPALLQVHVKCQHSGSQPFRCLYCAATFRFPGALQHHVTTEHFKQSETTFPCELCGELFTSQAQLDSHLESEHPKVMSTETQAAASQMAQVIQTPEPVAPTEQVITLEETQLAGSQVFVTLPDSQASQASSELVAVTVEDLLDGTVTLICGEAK

[12] = biological target: MAP kinase-activated protein kinase 2 (Homo sapiens) (UniProt P49137); experiment: MAPKAPK2 SGC Tm panel (DSF); settings: Compound concentration 20.0 uM
[13] = biological target: T2, Zinc finger and BTB domain-containing protein 9 (Homo sapiens) (UniProt Q96C00); settings: SUD4, Compound concentration 1.0 uM
T2 sequence (whole entry): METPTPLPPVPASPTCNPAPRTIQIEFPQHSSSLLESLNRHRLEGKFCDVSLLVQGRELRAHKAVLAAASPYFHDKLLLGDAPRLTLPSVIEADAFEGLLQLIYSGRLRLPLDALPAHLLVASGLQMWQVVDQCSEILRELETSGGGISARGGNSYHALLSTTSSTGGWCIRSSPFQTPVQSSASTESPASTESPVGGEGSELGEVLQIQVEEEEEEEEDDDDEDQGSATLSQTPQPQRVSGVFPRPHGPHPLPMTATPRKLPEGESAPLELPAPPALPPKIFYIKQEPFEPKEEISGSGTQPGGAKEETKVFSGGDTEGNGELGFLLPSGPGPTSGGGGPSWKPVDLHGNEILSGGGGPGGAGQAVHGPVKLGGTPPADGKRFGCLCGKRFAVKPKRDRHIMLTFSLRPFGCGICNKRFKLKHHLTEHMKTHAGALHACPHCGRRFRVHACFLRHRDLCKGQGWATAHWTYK

Sequence of Beta-1 adrenergic receptor (Homo sapiens) (P08588 whole entry, looked up): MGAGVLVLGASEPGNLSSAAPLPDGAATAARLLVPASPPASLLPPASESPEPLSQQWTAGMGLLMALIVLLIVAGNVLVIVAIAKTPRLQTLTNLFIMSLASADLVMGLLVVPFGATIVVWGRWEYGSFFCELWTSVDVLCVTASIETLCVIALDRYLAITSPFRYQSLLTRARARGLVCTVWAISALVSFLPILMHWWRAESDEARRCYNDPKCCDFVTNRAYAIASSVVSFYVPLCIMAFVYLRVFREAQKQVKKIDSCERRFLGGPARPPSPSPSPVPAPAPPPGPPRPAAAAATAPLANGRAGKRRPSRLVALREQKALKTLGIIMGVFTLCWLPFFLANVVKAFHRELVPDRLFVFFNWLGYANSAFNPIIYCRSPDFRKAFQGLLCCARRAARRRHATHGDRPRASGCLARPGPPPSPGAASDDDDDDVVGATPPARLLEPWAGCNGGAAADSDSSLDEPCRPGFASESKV
Sequence of Lymphokine-activated killer T-cell-originated protein kinase (Homo sapiens) (Q96KB5 whole entry): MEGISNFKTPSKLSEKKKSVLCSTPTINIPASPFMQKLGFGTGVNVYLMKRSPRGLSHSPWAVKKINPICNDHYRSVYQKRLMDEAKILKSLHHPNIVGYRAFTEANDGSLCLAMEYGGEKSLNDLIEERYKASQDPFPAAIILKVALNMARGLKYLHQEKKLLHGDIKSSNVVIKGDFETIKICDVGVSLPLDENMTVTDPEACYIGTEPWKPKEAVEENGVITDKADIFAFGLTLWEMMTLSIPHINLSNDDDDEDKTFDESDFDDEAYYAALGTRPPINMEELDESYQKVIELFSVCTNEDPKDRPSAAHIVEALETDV

inhibition [2]: -2.67%
Tm [3]: 40 °C
Tm [4]: 42 °C
LogFC [5]: -0.0678
Tm [6]: 46 °C
inhibition [7]: 56.5%
LogFC [8]: 0.0827
Tm [9]: 57 °C
LogFC [10]: -1.2
LogFC [11]: 0.0845
Tm [12]: 46 °C
LogFC [13]: -0.0222
SMILES: C[C@@H]1CN(c2ncc(Cl)c(Nc3ccc4c(c3)n(CCC(C)(C)O)c(=O)n4C)n2)C[C@H](C)C1(F)F
Tm [1]: 43 °C
